The values below come from patent US8415486B2, “IAP inhibitors” (TetraLogic Pharmaceuticals Corp., priority 2009, dated 2013).

The target in one test is T1, XIAP BIR-3 (Homo sapiens, UniProt P98170).
T1 construct: 40 nM of the respective IAP BIR3
Nature of the test: Fluorescence polarization binding to XIAP BIR-3 with labeled peptide AbuRPF-K(5-Fam)-NH2. To be noted: 40 nM BIR3, 5 nM labeled peptide, reported as ranges. In a few lines:
(§1)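 Competitive FP: compounds titrated against 5 nM AbuRPF-K(5-Fam)-NH2 tracer and 40 nM BIR3 protein, 15 min at RT in 0.1 M potassium phosphate pH 7.5 with bovine γ-globulin. Polarization read at 485/520 nm; KD reported in ranges A <0.1, B 0.1–1, C >1–10, D >10 μM.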
(In fluorescence polarisation assays a small probe gives low polarisation when free and higher when bound to something large.)

Test [1] has as its system ovarian cancer cell line, SK-OV-3. The test can be described thus: SK-OV-3 cell growth inhibition (MTT, 72 hrs). It is filed as cell-based. To be noted: Homo sapiens, concentration giving 50% cell survival, reported as ranges. The essentials:
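After overnight seeding in McCoy's medium with 10% FBS, SK-OV-3 cells were exposed to compound at 0.003-10 μM for 72 hrs at 37° C. MTT was then added for 3 h, with DMSO solubilization and OD read at 535 nm. CC50 is the concentration giving 50% survival relative to untreated control, reported as ranges.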

The target in the next test is T2, cIAP-1 BIR-3 (Homo sapiens, UniProt Q13490).
T2 construct: 40 nM of the respective IAP BIR3
T2 sequence (Q13490 253-363 limits assumed): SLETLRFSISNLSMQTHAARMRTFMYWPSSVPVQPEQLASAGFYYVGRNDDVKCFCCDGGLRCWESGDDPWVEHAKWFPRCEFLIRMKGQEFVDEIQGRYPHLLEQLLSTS
Nature of the test: Fluorescence polarization binding to cIAP-1 BIR-3 with labeled peptide AbuRPF-K(5-Fam)-NH2. The conditions noted are these: 40 nM BIR3, 5 nM labeled peptide, reported as ranges, read-out: KD (c-IAP-1 BIR3). In a few lines: as §1

By Kd is commonly meant a measure of binding affinity in units of concentration. Usually CC50 stands for the concentration giving 50% cytotoxicity. Low readings indicate harm at low concentration, high ones better tolerance by the cells.

T1 sequence (P98170 241-356 limits assumed): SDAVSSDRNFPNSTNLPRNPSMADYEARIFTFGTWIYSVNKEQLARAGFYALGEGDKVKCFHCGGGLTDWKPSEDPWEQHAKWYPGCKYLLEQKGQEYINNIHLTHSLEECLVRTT

On to `CN[C@@H](C)C(=O)N[C@H](C(=O)N1CC[C@@H]2[C@H]1[C@@H](COc1ccc(F)c(F)c1)CN2C(=O)NC(C)C)C(C)(C)C` [Example 67, 3-(3,4-Difluoro-phenoxymethyl)-4-[3.3-dimethyl-2-(2-methylaminopropionylamino)-butyryl]-hexahydro-pyrrolo[3,2-b]pyrrole-1-carboxylic acid isopropylamide], for which the Kd at XIAP BIR-3 and at cIAP-1 BIR-3 was below 100 nM in each case. The compound further returned a CC50 in test [1] below 100 nM.
On to `CN[C@@H](C)C(=O)N[C@H](C(=O)N1CC[C@@H]2[C@H]1[C@@H](COc1ccc(F)c(F)c1)CN2C(=O)N(C)C)C(C)(C)C` [Example 68, 3-(3,4-Difluoro-phenoxymethyl)-4-[3.3-dimethyl-2-(2-methylaminopropionylamino)-butyryl]-hexahydro-pyrrolo[3,2-b]pyrrole-1-carboxylic acid dimethylamide], for which the Kd at XIAP BIR-3 and at cIAP-1 BIR-3 was below 100 nM in each case. For the same compound, the CC50 in test [1] was below 100 nM.
On to `CN[C@@H](C)C(=O)N[C@H](C(=O)N1CC[C@@H]2[C@H]1[C@@H](COc1ccc(F)c(F)c1)CN2C(=O)C1CC1)C(C)(C)C` [Example 69, N-{1-[4-Cyclopropanecarbonyl-6-(3,4-difluoro-phenoxymethyl)-hexahydro-pyrrolo[3,2-b]pyrrole-1-carbonyl]-2,2-dimethyl-propyl}-2-methylamino propionamide], for which the Kd at XIAP BIR-3 is 100 to 1000 nM; at cIAP-1 BIR-3, below 100 nM. In test [1], this compound registered a 50% cytotoxic concentration (CC50) below 100 nM.
For the compound `CN[C@@H](C)C(=O)N[C@H](C(=O)N1CC[C@@H]2[C@H]1[C@@H](COc1ccc(F)c(F)c1)CN2C(=O)OC)C(C)(C)C` [Example 70, 3-(3,4-Difluoro-phenoxymethyl)-4-[3.3-dimethyl-2-(2-methylaminopropionylamino)-butyryl]-hexahydro-pyrrolo[3,2-b]pyrrole-1-carboxylic acid methyl ester], the Kd on XIAP BIR-3 and on cIAP-1 BIR-3 was below 100 nM each time. Further, in test [1], the CC50 was below 100 nM.
In the case of `CN[C@@H](C)C(=O)N[C@H](C(=O)N1CC[C@@H]2[C@H]1[C@@H](COc1ccc(F)c(F)c1)CN2C(=O)CC(C)C)C(C)(C)C` [Example 71, N-{1-[6-(3,4-Difluoro-phenoxymethyl)-4-(3-methyl-butyryl)-hexahydro-pyrrolo[3,2-b]pyrrole-1-carbonyl]-2,2-dimethyl-propyl}-2-methylamino propionamide], the Kd on XIAP BIR-3 and on cIAP-1 BIR-3 was below 100 nM throughout. The CC50 in test [1] was below 100 nM.
For the compound `CN[C@@H](C)C(=O)N[C@H](C(=O)N1CC[C@@H]2[C@H]1[C@@H](COc1ccc(F)c(F)c1)CN2c1ncccn1)C(C)(C)C` [Example 72, N-{1-[6-(3,4-Difluoro-phenoxymethyl)-4-pyrimidin-2-yl-hexahydro-pyrrolo[3,2-b]pyrrole-1-carbonyl]-2,2-dimethylpropyl}-2-methylamino-propionamide], the Kd was 100 to 1000 nM at XIAP BIR-3 and below 100 nM at cIAP-1 BIR-3. In test [1], this compound displayed a CC50 below 100 nM.
